From patent US11214538B2, “Farnesoid X receptor agonists and uses thereof” (Metacrine, Inc., priority 2015, dated 2022)

Experiments:
hFXR [1] = target: T1, hFXR (Homo sapiens, UniProt Q96RI1); test: In Vitro FXR Assay (TK), luciferase reporter in transfected CV-1 cells; format: cell-based; settings: CV-1 cells transfected with hFXR, hRXR, TK-ECRE-luc; 18 hrs incubation; luminescence; compounds with a maximum efficacy of <25% of the Fexaramine control classified as '+'
T1 construct: expressed in transfected cells; host or cells: CV-1 cells
T1 sequence (Q96RI1 1-486): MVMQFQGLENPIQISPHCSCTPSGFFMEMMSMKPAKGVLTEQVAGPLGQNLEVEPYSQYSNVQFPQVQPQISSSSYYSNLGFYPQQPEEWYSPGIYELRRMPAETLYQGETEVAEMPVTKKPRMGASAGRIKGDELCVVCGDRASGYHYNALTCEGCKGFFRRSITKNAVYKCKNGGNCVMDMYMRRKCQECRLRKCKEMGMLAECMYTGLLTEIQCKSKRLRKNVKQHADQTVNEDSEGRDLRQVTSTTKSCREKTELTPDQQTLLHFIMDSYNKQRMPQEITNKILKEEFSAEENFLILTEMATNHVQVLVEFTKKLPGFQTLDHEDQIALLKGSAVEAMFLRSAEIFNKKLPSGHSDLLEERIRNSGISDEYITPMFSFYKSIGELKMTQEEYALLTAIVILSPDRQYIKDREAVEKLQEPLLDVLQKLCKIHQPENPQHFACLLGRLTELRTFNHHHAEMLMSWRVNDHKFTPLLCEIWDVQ
T1 sequence (P19793 1-462 partner): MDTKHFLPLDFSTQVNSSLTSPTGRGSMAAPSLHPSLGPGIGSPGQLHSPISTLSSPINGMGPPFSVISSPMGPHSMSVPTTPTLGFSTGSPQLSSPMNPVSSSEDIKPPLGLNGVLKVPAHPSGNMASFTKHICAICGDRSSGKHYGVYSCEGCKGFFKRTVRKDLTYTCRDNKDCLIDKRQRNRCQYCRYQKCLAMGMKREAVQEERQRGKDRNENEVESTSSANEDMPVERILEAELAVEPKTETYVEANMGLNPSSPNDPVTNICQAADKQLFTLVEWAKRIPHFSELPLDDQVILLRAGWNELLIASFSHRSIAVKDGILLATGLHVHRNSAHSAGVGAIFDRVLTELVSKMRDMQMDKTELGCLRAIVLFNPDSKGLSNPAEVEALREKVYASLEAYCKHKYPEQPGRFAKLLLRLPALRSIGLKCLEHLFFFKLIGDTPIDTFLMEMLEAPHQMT
Method: Example B-2: In Vitro FXR Assay (TK)
CV-1 cells were seeded at a density of 2,000,000 cells in a T175 flask with DMEM+10% charcoal double-stripped FBS and incubated at 37° C. in 5% CO2 for 18 h (O/N).
After 18 h of incubation, the medium in the T175 flask was changed with fresh DMEM+10% charcoal super-stripped serum. In a polypropylene tube, 2500 μL OptiMEM (Life Technologies, Cat #31985-062) was combined with expression plasmids for hFXR, hRXR, TK-ECRE-luc and pCMX-YFP. The tube was then briefly vortexed and incubated at room temperature for 5 minutes. Transfection reagent (X-tremeGENE HP from Roche, Cat #06 366 236 001) was added to the OptiMEM/plasmid mixture vortexed and incubated at room temperature for 20 minutes. Following incubation, the transfection reagent/DNA mixture complex was added to cells in the T175 flask and the cells were incubated at 37° C. in 5% CO2 for 18 h (O/N).
Compounds were serially diluted in DMSO and added to transfected CV-1 cells. The cells were then incubated for 18 hrs. The next day cells were lysed and examined for luminescence.

hFXR [2] = target: T1, hFXR; test: In Vitro FXR Assay (PGL3), luciferase reporter in transfected CV-1 cells; format: cell-based; settings: CV-1 cells transfected with hFXR, hRXR, PGL3-ECRE*6-luc; 18 hrs incubation; luminescence
Method: Example B-1: In Vitro FXR Assay (PGL3)
CV-1 cells were seeded at a density of 2,000,000 cells in a T175 flask with DMEM+10% charcoal double-stripped FBS and incubated at 37° C. in a 5% CO2 for 18 h (O/N).
After 18 h of incubation, the medium in the T175 flask was changed with fresh DMEM+10% charcoal super-stripped serum.
To prepare the transfection reaction mixture, the transfection reagent (X-tremeGENE HP from Roche, Cat #06 366 236 001) was added in to a 1.5 mL microcentrifuge tube labelled “A” at a ratio of 1:3 (DNA in g: transfection reagent in μL). OptiMEM medium (Life Technologies, Cat #31985-062) was added accordingly to provide a total volume of 1 mL. The transfection reaction mixture was then briefly vortexed and incubated at room temperature for 5 minutes.
In a separate 1.5 mL microcentrifuge tube labelled “B”, 100 μL OptiMEM and plasmids XPD90Gal pCMXhFXRfl, pCMXhRXRfl+PGL3-ECRE*6-luc+CMX-YFP in the ratio 2 g: 2 g:18 g:3 g were added. This microcentrifuge tube “B” was then briefly vortexed and incubated at room temperature for 5 minutes.
The total volume in tube labelled “A” was then transferred in to tube labelled “B.” The mixture was then briefly vortexed and the transfection:DNA complex was then incubated for about 15-20 minutes at room temperature.
Following incubation, the transfection reagent/DNA mixture complex was then added to cells in the T175 flask and the cells were incubated at […] (O/N) at 37° C. in 5% CO2.
In a 96 well plate, a half logarithmic serial dilution was prepared. OptiMEM was used as the diluent. Using any of one of the compounds described herein, a compound stock solution of 10 mM was prepared. An initial 1:100 dilution was made into the first well for a final concentration of 100 μM. The final concentrations in the 96-well plate was prepared by using a multichannel pipette to transfer 5 μL of the diluted compound to 384-well plate in quadruplicate.
Cells in T175 flask were trypsinized and cells were resuspending in 40 mL phenol red free DMEM+10% charcoal super-stripped FBS. Typically, one T175 flask was sufficient to seed two 384 well plates. CV-1 cells were seeded at 45 μL cell suspension/well using a multichannel pipet or a 384 multidrop dispenser. The cells were then incubated for 18 hrs, overnight.
After removing the plates from the incubator, the medium was flicked out of plate and 384 well plate was turned upside down onto paper towel. The remaining medium was gently tapped out. 15 μL lysis buffer was then added to each well using a multichannel pipet or a 384 well multi-drop dispenser. After incubation for 10 minutes at room temperature on shaker, 30 μL Luciferase buffer was added to each well. Luminescence counts were taken immediately using the Perkin Elmer Envision.
The ability of the compounds disclosed herein to […] FXR activity was quantified and the respective EC50 value was determined. Fex=fexaramine.

Compound: O=C(C1CCCCC1)N(Cc1ccc(-c2ccc(F)cc2)cc1)c1cccc(-c2ccccc2)c1 [Compound 15, N-([1,1′-Biphenyl]-3-yl)-N-((4′-fluoro-[1,1′-biphenyl]-4-yl)methyl)cyclohexanecarboxamide]
- EC50 (hFXR [1]): ≤ 3 µM
- Cmpd/Fex (ratio of the EC50 for the test compound relative to the EC50 of the Fexaramine control) (hFXR [2]): + (‘+’ means Cmpd/Fex >100)

Compound: COc1cccc(-c2cccc(N(Cc3ccc(-c4ccc(N(C)C)cc4)cc3)C(=O)C3CCCCC3)c2)c1 [Compound 2, N-((4′-(Dimethylamino)-[1,1′-biphenyl]-4-yl)methyl)-N-(3′-methoxy-[1,1′-biphenyl]-3-yl)cyclohexanecarboxamide]
- Cmpd/Fex (ratio of the EC50 for the test compound relative to the EC50 of the Fexaramine control) (hFXR [2]): ++ (‘++’ means Cmpd/Fex >10 & <100)

Compound: CCC/C=C/c1cccc(N(Cc2ccc(-c3ccc(N(C)C)cc3)cc2)C(=O)C2CCCCC2)c1 [Compound 7, (E)-N-((4′-(dimethylamino)-[1,1′-biphenyl]-4-yl)methyl)-N-(3-(pent-1-en-1-yl)phenyl)cyclohexanecarboxamide]
- EC50 (hFXR [1]): 3 to 10 µM
- Cmpd/Fex (ratio of the EC50 for the test compound relative to the EC50 of the Fexaramine control) (hFXR [2]): ++ (‘++’ means Cmpd/Fex >10 & <100)

Compound: CN(C)CCNc1cccc(N(Cc2ccc(-c3ccc(N(C)C)cc3)cc2)C(=O)C2CCCCC2)c1 [Compound 5, N-((4′-(Dimethylamino)-[1,1′-biphenyl]-4-yl)methyl)-N-(3-((2-(dimethylamino)ethyl)amino)phenyl) cyclohexanecarboxamide]
- Cmpd/Fex (ratio of the EC50 for the test compound relative to the EC50 of the Fexaramine control) (hFXR [2]): + (‘+’ means Cmpd/Fex >100)

Compound: C/C=C/c1cccc(N(Cc2ccc(-c3ccc(N(C)C)cc3)cc2)C(=O)C2CCCCC2)c1 [Compound 16, (E)-N-((4′-(Dimethylamino)-[1,1′-biphenyl]-4-yl)methyl)-N-(3-(prop-1-en-1-yl)phenyl)cyclohexanecarboxamide]
- EC50 (hFXR [1]): 3 to 10 µM
- Cmpd/Fex (ratio of the EC50 for the test compound relative to the EC50 of the Fexaramine control) (hFXR [2]): ++ (‘++’ means Cmpd/Fex >10 & <100)

Compound: CN(C)c1ccc(-c2ccc(CN(C(=O)C3CCCCC3)c3cccc(CN4CCCC4=O)c3)cc2)cc1 [Compound 8, N-((4′-(Dimethylamino)-[1,1′-biphenyl]-4-yl)methyl)-N-(3-((2-oxopyrrolidin-1-yl)methyl)phenyl)cyclohexanecarboxamide]
- Cmpd/Fex (ratio of the EC50 for the test compound relative to the EC50 of the Fexaramine control) (hFXR [2]): + (‘+’ means Cmpd/Fex >100)

Compound: CNC(=O)/C=C/c1cccc(N(Cc2ccc(-c3ccc(N(C)C)cc3)cc2)C(=O)C2CCCCC2)c1 [Compound 12, (E)-N-((4′-(Dimethylamino)-[1,1′-biphenyl]-4-yl)methyl)-N-(3-(3-(methylamino)-3-oxoprop-1-en-1-yl)phenyl)cyclohexanecarboxamide]
- Cmpd/Fex (ratio of the EC50 for the test compound relative to the EC50 of the Fexaramine control) (hFXR [2]): ++ (‘++’ means Cmpd/Fex >10 & <100)

Compound: COCCNc1cccc(N(Cc2ccc(-c3ccc(N(C)C)cc3)cc2)C(=O)C2CCCCC2)c1 [Compound 4, N-((4′-(dimethylamino)-[1,1′-biphenyl]-4-yl)methyl)-N-(3-((2-methoxyethyl)amino)phenyl)cyclohexanecarboxamide]
- EC50 (hFXR [1]): 3 to 10 µM
- Cmpd/Fex (ratio of the EC50 for the test compound relative to the EC50 of the Fexaramine control) (hFXR [2]): +++ (‘+++’ means Cmpd/Fex <10)

Compound: COC(=O)CNc1cccc(N(Cc2ccc(-c3ccc(N(C)C)cc3)cc2)C(=O)C2CCCCC2)c1 [Compound 9, Methyl 2-((3-(N-((4′-(dimethylamino)-[1,1′-biphenyl]-4-yl)methyl)cyclohexanecarboxamido)phenyl)amino)acetate]
- EC50 (hFXR [1]): ≤ 3 µM
- Cmpd/Fex (ratio of the EC50 for the test compound relative to the EC50 of the Fexaramine control) (hFXR [2]): ++ (‘++’ means Cmpd/Fex >10 & <100)

Compound: COC(=O)NCc1cccc(N(Cc2ccc(-c3ccc(N(C)C)cc3)cc2)C(=O)C2CCCCC2)c1 [Compound 11, Methyl 3-(N-((4′-(dimethylamino)-[1,1′-biphenyl]-4-yl)methyl)cyclohexanecarboxamido)benzylcarbamate]
- Cmpd/Fex (ratio of the EC50 for the test compound relative to the EC50 of the Fexaramine control) (hFXR [2]): + (‘+’ means Cmpd/Fex >100)

Compound: COc1cc(-c2cccc(N(Cc3ccc(-c4ccc(N(C)C)cc4)cc3)C(=O)C3CCCCC3)c2)ccn1 [Compound 3, N-((4′-(Dimethylamino)-[1,1′-biphenyl]-4-yl)methyl)-N-(3-(2-methoxypyridin-4-yl)phenyl)cyclohexanecarboxamide]
- Cmpd/Fex (ratio of the EC50 for the test compound relative to the EC50 of the Fexaramine control) (hFXR [2]): +++ (‘+++’ means Cmpd/Fex <10)

Compound: C/C=C\c1cccc(N(Cc2ccc(-c3ccc(N(C)C)cc3)cc2)C(=O)C2CCCCC2)c1 [Compound 17, (Z)-N-((4′-(Dimethylamino)-[1,1′-biphenyl]-4-yl)methyl)-N-(3-(prop-1-en-1-yl)phenyl)cyclohexanecarboxamide]
- Cmpd/Fex (ratio of the EC50 for the test compound relative to the EC50 of the Fexaramine control) (hFXR [2]): ++ (‘++’ means Cmpd/Fex >10 & <100)

Compound: COC(=O)CN(C)c1cccc(N(Cc2ccc(-c3ccc(N(C)C)cc3)cc2)C(=O)C2CCCCC2)c1 [Compound 10, Methyl 2-((3-(N-((4′-(dimethylamino)-[1,1′-biphenyl]-4-yl)methyl)cyclohexanecarboxamido)phenyl)(methyl)amino)acetate]
- Cmpd/Fex (ratio of the EC50 for the test compound relative to the EC50 of the Fexaramine control) (hFXR [2]): + (‘+’ means Cmpd/Fex >100)

Compound: CN(C)c1ccc(-c2ccc(CN(C(=O)C3CCCCC3)c3cccc(Oc4ccccc4)c3)cc2)cc1 [Compound 19, N-((4′-(Dimethylamino)-[1,1′-biphenyl]-4-yl)methyl)-N-(3-phenoxyphenyl)cyclohexanecarboxamide]
- Cmpd/Fex (ratio of the EC50 for the test compound relative to the EC50 of the Fexaramine control) (hFXR [2]): + (‘+’ means Cmpd/Fex >100)

Compound: CC(C)CNc1cccc(N(Cc2ccc(-c3ccc(N(C)C)cc3)cc2)C(=O)C2CCCCC2)c1 [Compound 6, N-((4′-(Dimethylamino)-[1,1′-biphenyl]-4-yl)methyl)-N-(3-(isobutylamino)phenyl) cyclohexanecarboxamide]
- Cmpd/Fex (ratio of the EC50 for the test compound relative to the EC50 of the Fexaramine control) (hFXR [2]): + (‘+’ means Cmpd/Fex >100)
